Measured values reported in US20250074873A1, “COMPOUNDS” (Psylo Pty Ltd, priority 2021, published 2025).
Like-named read-outs stand apart in the source and are kept apart here.

How the values were obtained:
Format in all cases: cell-based
5-HT2B receptor = target: T1, 5-HT2B receptor (Homo sapiens, UniProt P41595); test: FLIPR Ca2+ flux functional assay, 5-HT2B agonist activity
T1 construct: host or cells: CHO-K1
Protocol: (§1) Functional Assays 5-HT2A, 5-HT2B and 5-HT2C Receptors
(§2) Activity at 5-HT2A, 5-HT2B and 5-HT2C receptors was determined using a FLIPR Ca2+ flux assay at WuXi AppTec Co. Ltd. (Hong Kong) Discovery Biology Unit according to their standard protocols. Briefly, stably transfected cells expressing the receptor of interest (HEK293 for 5-HT2A and 5-HT2C; CHO-K1 for 5-HT2B) were grown and plated in a 384 well plate and incubated at 37° C. and 5% 002 overnight. A 250 mM stock solution of probenecid in FLIPR calcium assay buffer (10 mL) was freshly prepared and combined with a fluorescent dye (Fluo-4 Direct) to give a final assay concentration of 2.5 mM. Reference compounds were 4-fold serially diluted and the screening compounds were 3-fold serially diluted in 100% DMSO for 10 points using Agilent Bravo, and 750 nL was added to a 384 well compound plate using Echo along with 30 μL assay buffer. The fluorescent dye was then added to the assay plate along with assay buffer to a final volume of 40 μL. The cell plate was incubated for […] at 37° C. and 5% 002 and placed into the FLIPR Tetra along with the compound plate. 10 μL of references and compounds were then transferred from the compound plate into the cell plate and the fluorescent signal was read.

5-HT2A receptor = target: T2, 5-HT2A receptor (Homo sapiens, UniProt P28223); test: FLIPR Ca2+ flux functional assay, 5-HT2A agonist activity
T2 construct: host or cells: HEK293
Protocol: as §1, §2

5-HT2C receptor = target: T3, 5-HT2C receptor (Homo sapiens, UniProt P28335); test: FLIPR Ca2+ flux functional assay, 5-HT2C agonist activity
T3 construct: host or cells: HEK293
T3 sequence (P28335 33-458): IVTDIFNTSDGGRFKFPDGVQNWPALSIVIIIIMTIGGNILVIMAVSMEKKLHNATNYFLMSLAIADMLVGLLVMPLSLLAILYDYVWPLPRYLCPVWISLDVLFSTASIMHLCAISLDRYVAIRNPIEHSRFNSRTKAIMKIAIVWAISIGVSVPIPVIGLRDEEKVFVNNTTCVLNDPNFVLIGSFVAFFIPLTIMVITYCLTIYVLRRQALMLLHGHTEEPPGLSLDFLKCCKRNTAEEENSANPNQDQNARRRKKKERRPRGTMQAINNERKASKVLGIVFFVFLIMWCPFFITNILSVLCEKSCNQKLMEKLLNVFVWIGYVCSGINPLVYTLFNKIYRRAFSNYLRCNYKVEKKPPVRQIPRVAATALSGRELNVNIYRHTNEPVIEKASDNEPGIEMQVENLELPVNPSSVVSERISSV
Protocol: as §1, §2

[1] = agonist activity, Ca2+ flux, stably transfected CHO-K1 cells
[2] = agonist activity, Ca2+ flux, stably transfected HEK293 cells

T1 sequence (P41595 whole entry): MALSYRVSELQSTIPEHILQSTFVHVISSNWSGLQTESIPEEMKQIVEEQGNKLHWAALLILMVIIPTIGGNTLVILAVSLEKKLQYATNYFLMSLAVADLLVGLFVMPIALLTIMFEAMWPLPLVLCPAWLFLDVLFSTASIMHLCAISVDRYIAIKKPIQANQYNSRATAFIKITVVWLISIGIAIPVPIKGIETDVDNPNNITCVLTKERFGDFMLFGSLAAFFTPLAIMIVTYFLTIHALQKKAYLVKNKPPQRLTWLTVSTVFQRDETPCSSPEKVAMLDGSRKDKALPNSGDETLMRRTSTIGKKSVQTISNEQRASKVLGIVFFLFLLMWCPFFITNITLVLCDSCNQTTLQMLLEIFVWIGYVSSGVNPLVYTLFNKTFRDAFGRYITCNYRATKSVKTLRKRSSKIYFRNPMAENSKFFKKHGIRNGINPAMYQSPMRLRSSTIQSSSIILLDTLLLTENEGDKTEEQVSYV
T2 sequence (P28223 whole entry): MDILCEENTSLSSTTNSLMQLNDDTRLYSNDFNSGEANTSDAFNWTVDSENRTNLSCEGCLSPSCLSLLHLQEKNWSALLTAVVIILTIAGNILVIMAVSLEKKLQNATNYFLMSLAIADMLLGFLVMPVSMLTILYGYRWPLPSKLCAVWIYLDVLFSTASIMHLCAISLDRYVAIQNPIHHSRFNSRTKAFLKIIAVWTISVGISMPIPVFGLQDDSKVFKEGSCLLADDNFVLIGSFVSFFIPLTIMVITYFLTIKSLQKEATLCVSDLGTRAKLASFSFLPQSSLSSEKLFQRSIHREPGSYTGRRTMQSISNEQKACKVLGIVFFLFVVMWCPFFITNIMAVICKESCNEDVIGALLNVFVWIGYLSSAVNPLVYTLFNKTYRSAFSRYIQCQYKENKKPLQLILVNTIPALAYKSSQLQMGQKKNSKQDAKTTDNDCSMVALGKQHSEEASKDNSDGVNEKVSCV

Row | Compound | EC50 (5-HT2B receptor) [nM] | Emax (5-HT2B receptor; [1]) [%] | EC50 (5-HT2A receptor) [nM] | Emax (5-HT2A receptor; [2]) [%] | EC50 (5-HT2C receptor) [nM] | Emax (5-HT2C receptor; [2]) [%] | EC50 (5-HT2B receptor; agonist activity, Ca2+ flux, stably transfected CHO-K1 cells, read-out: 5-HT2B EC50) [nM] | EC50 (5-HT2A receptor; agonist activity, Ca2+ flux, stably transfected HEK293 cells, read-out: 5-HT2A EC50) [nM] | EC50 (5-HT2C receptor; agonist activity, Ca2+ flux, stably transfected HEK293 cells, read-out: 5-HT2c EC50) [nM]
1 | CN(C)CCc1c[nH]c2cccc(OC(F)(F)F)c12 [Compound P-4, N,N-dimethyl-2-(4-(trifluoromethoxy)-1H-indol-3-yl)ethan-1-amine] | > 10000 | -0.97 | 52.8 | 34.6 | 15.9 | 66.6 |  |  | 
2 | CN(C)CCc1c[nH]c2ccc(OC(F)(F)F)cc12 [Compound P-5, N,N-dimethyl-2-(5-(trifluoromethoxy)-1H-indol-3-yl)ethan-1-amine] | > 10000 | -0.27 | 171 | 40.5 | 520 | 55.1 |  |  | 
3 | CN(C)CCc1c[nH]c2ccc(C(F)(F)F)cc12 [Compound P-15, N,N-dimethyl-2-(5-(trifluoromethyl)-1H-indol-3-yl)ethan-1-amine] | > 10000 | 7.41 | 186 | 28.7 | 89.7 | 88.8 |  |  | 
4 | CCC(C)N(C)CCc1c[nH]c2ccc(OC)cc12 (stereo not drawn) [Compound P-16, N-(2-(5-methoxy-1H-indol-3-yl)ethyl)-N-methylbutan-2-amine] | > 10000 | -1.2 | 36.9 | 58.5 | 553 | 59.5 |  |  | 
5 | CCCN(CCc1c[nH]c2ccc(OC)cc12)C(C)C [Compound P-17, N-isopropyl-N-(2-(5-methoxy-1H-indol-3-yl)ethyl)propan-1-amine] | 138 | 69.2 | 13.8 | 89 | 185 | 82.1 |  |  | 
6 | CCN(CCc1c[nH]c2ccc(OC)cc12)CC(C)C [Compound P-18, N-ethyl-N-(2-(5-methoxy-1H-indol-3-yl)ethyl)-2-methylpropan-1-amine] | 867 | 51.8 | 47.9 | 79.5 | 1130 | 68.9 |  |  | 
7 | CCC(C)N(CC)CCc1c[nH]c2ccc(OC)cc12 (stereo not drawn) [Compound P-19, N-ethyl-N-(2-(5-methoxy-1H-indol-3-yl)ethyl)butan-2-amine] | 1400 | 44.5 | 33.3 | 70.3 | 933 | 76.8 |  |  | 
8 | CCC(C)N(C)CCc1c[nH]c2ccccc12 (stereo not drawn) [Compound P-20, N-(2-(1H-indol-3-yl)ethyl)-N-methylbutan-2-amine] | > 10000 | 0.83 | 91.2 | 16.1 | 646 | 58.8 |  |  | 
9 | CCC(C)N(CC)CCc1c[nH]c2ccccc12 (stereo not drawn) [Compound P-21, N-(2-(1H-indol-3-yl)ethyl)-N-ethylbutan-2-amine] | > 10000 | 37.2 | 148 | 71.5 | 974 | 61.5 |  |  | 
10 | CCN(CCc1c[nH]c2ccccc12)CC(C)C [Compound P-22, N-(2-(1H-indol-3-yl)ethyl)-N-ethyl-2-methylpropan-1-amine] | 1140 | 28 | 389 | 52.8 | 960 | 58.4 |  |  | 
11 | CCC(C)N(C)CCc1c[nH]c2cccc(OC)c12 (stereo not drawn) [Compound P-23, N-(2-(4-methoxy-1H-indol-3-yl)ethyl)-N-methylbutan-2-amine] | > 10000 | -0.21 | 124 | 50.3 | 465 | 21.7 |  |  | 
12 | CCC(C)N(CC)CCc1c[nH]c2cccc(OC)c12 (stereo not drawn) [Compound P-24, N-ethyl-N-(2-(4-methoxy-1H-indol-3-yl)ethyl)butan-2-amine] | 444 | 52.6 | 70.2 | 77.7 | 964 | 68.6 |  |  | 
13 | CCN(CCc1c[nH]c2cccc(OC)c12)C(C)C [Compound P-25, N-ethyl-N-(2-(4-methoxy-1H-indol-3-yl)ethyl)propan-2-amine] | 459 | 61.4 | 121 | 85.9 | 676 | 77.8 |  |  | 
14 | CCCN(CCc1c[nH]c2cccc(OC)c12)C(C)C [Compound P-26, N-isopropyl-N-(2-(4-methoxy-1H-indol-3-yl)ethyl)propan-1-amine] | 103 | 96 | 36.5 | 81.6 | 106 | 87.1 |  |  | 
15 | CCCN(C)CCc1c[nH]c2ccc(OC(F)(F)F)cc12 [Compound P-34, N-methyl-N-(2-(5-(trifluoromethoxy)-1H-indol-3-yl)ethyl)propan-1-amine] | > 10000 | 18.9 | 665 | 53.7 | 329 | 81.7 |  |  | 
16 | Cc1cccc2[nH]cc(CCN(C)C(C)C)c12 [Compound P-42, N-methyl-N-(2-(4-methyl-1H-indol-3-yl)ethyl)propan-2-amine] | 814 | 41.4 | 39.6 | 94.7 | 48.6 | 91.2 |  |  | 
17 | COc1cccc2[nH]cc(CCN(C)CC(C)C)c12 [Compound P-136, N-(2-(4-methoxy-1H-indol-3-yl)ethyl)-N,2-dimethylpropan-1-amine] | > 10000 | -1.63 | 91.5 | 100 | 261 | 78.5 |  |  | 
18 | CCN(CCc1c[nH]c2cccc(OC)c12)CC(C)C [Compound P-137, N-ethyl-N-(2-(4-methoxy-1H-indol-3-yl)ethyl)-2-methylpropan-1-amine] | > 10000 | 19.4 | 85.6 | 95.8 | 138 | 96.2 |  |  | 
19 | CCN(CCc1c[nH]c2cccc(O)c12)C(C)C [Compound P-138, 3-(2-(ethyl(isopropyl)amino)ethyl)-1H-indol-4-ol] | 322 | 53.5 | 19.9 | 105 | 862 | 83.3 |  |  | 
20 | CCC(C)N(CC)CCc1c[nH]c2cccc(O)c12 (stereo not drawn) [Compound P-139, 3-(2-(sec-butyl(ethyl)amino)ethyl)-1H-indol-4-ol] | > 10000 | 15.7 | 54 | 107 | 1900 | 55.2 |  |  | 
21 | CCN(CCc1c[nH]c2cccc(O)c12)CC(C)C [Compound P-140, 3-(2-(ethyl(isobutyl)amino)ethyl)-1H-indol-4-ol] | > 10000 | 17.5 | 27.7 | 97.5 | 992 | 95.4 |  |  | 
22 | CCCN(CCc1c[nH]c2cccc(O)c12)C(C)C [Compound P-141, 3-(2-(isopropyl(propyl)amino)ethyl)-1H-indol-4-ol] | 330 | 62.2 | 13.8 | 105 | 422 | 92 |  |  | 
23 | COc1ccc2[nH]cc(CCN(C)C3CC3)c2c1 [Compound P-162, N-(2-(5-methoxy-1H-indol-3-yl)ethyl)-N-methylcyclopropanamine] | ≥ 10000 | 12 | 4.83 | 95.6 | 10.6 | 89.2 |  |  | 
24 | COc1ccc2[nH]cc(CCN(C)C3CCC3)c2c1 [Compound P-163, N-(2-(5-methoxy-1H-indol-3-yl)ethyl)-N-methylcyclobutanamine] | ≥ 10000 | 2.29 | 25.4 | 90.5 | 128 | 75.9 |  |  | 
25 | COc1ccc2[nH]cc(CCN(C)C3COC3)c2c1 [Compound P-164, N-(2-(5-methoxy-1H-indol-3-yl)ethyl)-N-methyloxetan-3-amine] |  | 1.26 |  | 57.5 |  | 59.9 | ≥ 10000 | 671 | 6280
